Results reported in patent US10905770B2, “Topical delivery of therapeutic agents using cell-penetrating peptides for the treatment of age-related macular degeneration and other eye diseases” (priority 2017, dated 2021).
Entries after “also recorded” stand apart in the source; their conditions may differ.

Legend:
[1] = Experimental: (§1) Lutein was dissolved in DMSO (10 mg/mL) and titrated into water. […] As a proxy for topical delivery into the eye by eye drop, 50 μL of lutein plus hexa-arginine (SEQ ID NO: 258) or lutein alone was applied to one side of the outer shell membrane of a chicken egg, and the material that crossed the membrane in water was collected after 2 minutes. The level of lutein was measured by absorbance. The experiment was conducted three times (n=3).
as §1, with “Zeaxanthin” for “Lutein”, “DMF” for “DMSO”, “zeaxanthin” for “lutein”
as §1, with “into water, zeaxanthin was dissolved in DMF (10 mg/mL) and titrated into water, and then lutein and zeaxanthin were mixed in a 1:1 ratio.” for “into water.”, “lutein and zeaxanthin” for “lutein”, “NO: 258),” for “NO: 258)”, “lutein and zeaxanthin without CPP,” for “lutein alone”
as §1, with “Dexamethasone” for “Lutein”, “DMSO” for “DMSO (10 mg/mL)”, “dexamethasone” for “lutein”, “presence” for “level”, “detected” for “measured”, “electrospray mass spectroscopy.” for “absorbance. The experiment was conducted three times (n=3).”
Tacrolimus was dissolved in DMSO and titrated into water. […] As a proxy for topical delivery into the eye by eye drop, 50 μL of tacrolimus plus hexa-arginine (SEQ ID NO: 258) or tacrolimus alone was applied to one side of the outer shell membrane of a chicken egg, and the material that crossed the membrane in water was collected after 2 minutes. The presence of tacrolimus was detected by electrospray mass spectroscopy.
as §1, with “Adalimumab” for “Lutein”, “fluorescently tagged” for “dissolved in DMSO (10 mg/mL)”, “purified.” for “titrated into water.”, “adalimumab” for “lutein”, “PBS” for “water”, “fluorescence.” for “absorbance.”
As a proxy for topical delivery into the eye by eye drop, 50 μL of glucose plus hexa-arginine (SEQ ID NO: 258) or glucose alone was applied to one side of the outer shell membrane of a chicken egg, and the material that crossed the membrane in water was collected after 2 minutes. The presence of glucose was detected by electrospray mass spectroscopy.
(§2) As a proxy for topical delivery into the eye by eye drop, 50 μL of BDNF plus hexa-arginine (SEQ ID NO: 258) or BDNF alone was applied to one side of the outer shell membrane of a chicken egg, and the material that crossed the membrane in PBS was collected after 2 minutes. The level of BDNF was measured by ELISA. The experiment was conducted three times (n=3).
as §2, with “GDNF” for “BDNF”, “ELISA.” for “ELISA. The experiment was conducted three times (n=3).”

[2] = test system: neutral lipids in and on the Bruch's membrane; assay: Oil red O staining of neutral lipids in Bruch's membrane, macaque study; type: in vivo, Macaca fascicularis; conditions: eyes injected with L-4F vs eyes injected with placebo; 6 monthly intravitreal injections (total 625 μg); after 6 months
Experimental: (§3) The macaque study was conducted according to accepted guidelines. […] One eye per animal received 6 monthly injections of the same escalating dosages of L-4F or scrambled L-4F (total of 625 μg) in a 50 μL volume. The second eye per animal was not injected and was just observed.
(§4) Clinical laboratory tests including serology, hemograms and liver enzymes were conducted, and ophthalmic examinations were also performed, including fundus photographs, optical coherence tomography (OCT), intraocular pressure testing and blood sampling. After 7 months, all animals were sacrificed and eyes were immediately prepared for histology. Histochemistry was performed with oil red O for neutral lipids and filipin for esterified cholesterol. […]
For staining with oil red O (ORO), specimens were treated with a 0.3% oil red O (Sigma-Aldrich Biochemie GmbH, Hamburg, Germany) solution (in 99% isopropanol) for 30 min at room temperature (RT), followed by immersion in a 60% isopropanol solution for 12 min. […] Image analysis was performed by grading the intensity of ORO staining (red color) of the Bruch's membrane (BrM) with scores ranging from 0 to 4, according to a qualitative evaluation assessed in four different regions in two separate slices from each eye (a total of 8 different regions from each eye). […]

[3] = test system: esterified cholesterol in the Bruch's membrane; assay: Filipin staining of esterified cholesterol in Bruch's membrane, macaque study; type: in vivo, Macaca fascicularis; conditions: eyes injected with L-4F vs placebo-injected eyes; 6 monthly intravitreal injections
Experimental: as §3
as §4, with “histology.” for “histology. Histochemistry was performed with oil red O for neutral lipids and filipin for esterified cholesterol.”
For staining with filipin, specimens were washed once with deionized water for 5 min and then treated with 70% ethanol for 45 min. […] The specimens were then washed sequentially with PBS and deionized water, mounted with a mounting solution (Mowiol®, Carl Roth GmbH, Karlsruhe, Germany), covered with a glass cover slip, and examined using an inverted fluorescence microscope (DMI 6000 from Leica Microsystems, Wetzlar, Germany). Filipin fluorescence was observed using a UV filter set (λex/λem=350 nm/455 nm). […] Semiquantitative analysis of fluorescence intensity of filipin at three separate regions of the BrM was done on three different slides from the same eye (a total of 9 different regions from each eye).

[4] = test system: membrane attack complex (MAC, C5b-9); assay: Immunohistochemistry of membrane attack complex, macaque study; type: in vivo, Macaca fascicularis; conditions: eyes injected with L-4F vs eyes injected with the scrambled peptide; fluorescence intensity
Experimental: as §3
as §4, with “histology.” for “histology. Histochemistry was performed with oil red O for neutral lipids and filipin for esterified cholesterol.”
(§5) Assays for immunohistochemistry of the membrane attack complex (MAC, C5b-9) and complement factor D (CFD) were performed identically except for employment of monoclonal antibodies specific for each complement component. […] Fluorescence microscopy was conducted using an inverted fluorescence microscope (DMI 6000 from Leica Microsystems, Wetzlar, Germany) and a filter set for λex/λem=470 nm/525 nm. For the semiquantitative analysis of fluorescence intensity of C5b-9, 3-5 different regions in one slide were analyzed for 3 different slides from each eye (a total of 9-15 different regions from each eye). For the semiquantitative analysis of fluorescence intensity of complement factor D, 3 distinct regions for each eye were evaluated.

[5] = test system: complement factor D (CFD); assay: Immunohistochemistry of complement factor D, macaque study; type: in vivo, Macaca fascicularis; conditions: eyes injected with L-4F vs eyes injected with the scrambled peptide; fluorescence intensity
Experimental: as §3
as §4, with “histology.” for “histology. Histochemistry was performed with oil red O for neutral lipids and filipin for esterified cholesterol.”
as §5

[6] = test system: geriatric macaques with naturally occurring age-related maculopathy; assay: Bruch's membrane thickness by electron microscopy, macaque study; type: in vivo, Macaca fascicularis
Experimental: as §3
Lipid deposition in the Bruch's membrane contributes to thickening of the BrM. Bruch's membrane thickness was measured at the temporal outer macula of enucleated eyes examined by electron microscopy post-mortem.

[7] = test system: geriatric macaques with naturally occurring age-related maculopathy; assay: Macaque study: fellow non-injected eye, tolerability and blood hsCRP; type: in vivo
Experimental: as §3
Clinical laboratory tests including serology, hemograms and liver enzymes were conducted, and ophthalmic examinations were also performed, including fundus photographs, optical coherence tomography (OCT), intraocular pressure testing and blood sampling. After 7 months, all animals were sacrificed and eyes were immediately prepared for histology. Histochemistry was performed with oil red O for neutral lipids and filipin for esterified cholesterol. Immunohistochemistry was performed against complement factor D (CFD) and the membrane attack complex (MAC, C5b-9), both being markers of activation of the alternative complement pathway.
Circulating hsCRP, which is mainly produced in the liver, is a non-specific marker for systemic inflammation.

rat eye in vivo = assay: CPP-assisted delivery into rat eye in vivo
Experimental: An eye drop of 50 μL of bevacizumab plus hexa-arginine (SEQ ID NO: 258) was applied topically to the front of one of the eyes of a live rat, and then the rat was sacrificed 60 minutes after topical application.

geographic atrophy (GA) = conditions: vs placebo, cited from earlier work

Question: Which “crossing of the egg shell membrane (electrospray mass spectroscopy)” value [1] does the source give for `C[C@@H]1C[C@H]2[C@@H]3CCC4=CC(=O)C=C[C@]4(C)[C@@]3(F)[C@@H](O)C[C@]2(C)[C@@]1(O)C(=O)CO` [dexamethasone, reference compound] here?
Answer: did not cross

Question: Which “crossing of the egg shell membrane” value [1] does the source give for `CC1=C[C@H](O)CC(C)(C)[C@H]1/C=C/C(C)=C/C=C/C(C)=C/C=C/C=C(C)/C=C/C=C(C)/C=C/C1=C(C)C[C@@H](O)CC1(C)C` [lutein] here?
Answer: did not cross

Question: Which “crossing of the egg shell membrane (electrospray mass spectroscopy)” value [1] does the source give for `C=CC[C@@H]1/C=C(\C)C[C@H](C)C[C@H](OC)[C@H]2O[C@@](O)(C(=O)C(=O)N3CCCC[C@H]3C(=O)O[C@H](/C(C)=C/[C@@H]3CC[C@@H](O)[C@H](OC)C3)[C@H](C)[C@@H](O)CC1=O)[C@H](C)C[C@@H]2OC` [tacrolimus, reference compound] here?
Answer: did not cross

Question: For `CC1=C(/C=C/C(C)=C/C=C/C(C)=C/C=C/C=C(C)/C=C/C=C(C)/C=C/C2=C(C)C[C@@H](O)CC2(C)C)C(C)(C)C[C@H](O)C1` [zeaxanthin], which “crossing of the egg shell membrane” value [1] is on record?
Answer: a very small amount

Question: Which “reduction of lipid deposits from the BrM (staining with oil red O)” value [2] does the source give for Ac-DWFKAFYDKVAEKFKEAF-NH2 [L-4F] here?
Answer: about 56%

Question: And the “reduction of esterified cholesterol in the BrM (filipin fluorescence)” value [3]?
Answer: about 68%

Question: What about the “decreased level of MAC (C5b-9) in the BrM and the choriocapillaris” value [4] of the same molecule?
Answer: about 58%

Question: What about the “decreased level of complement factor D” value [5] of the same molecule?
Answer: about 41%

Question: And the “reduction of BrM thickness” value ([6]; eyes injected with L-4F vs eyes injected with placebo)?
Answer: about 24%

Question: And the BrM thickness ([6]; eyes injected with L-4F, temporal outer macula, electron microscopy post-mortem, ±SE)?
Answer: 1.31 μm

Question: And the “blood level of high-sensitivity C-reactive protein (hsCRP)” value ([7]; after 6 monthly intravitreal injections vs day prior to first injection)?
Answer: did not increase

Question: What about the “tolerability (adverse events, side effects)” value ([7]; macaques intravitreally injected with L-4F) of the same molecule?
Answer: well tolerated

Question: What does the source list for adalimumab?
Answer: amount that crossed the membrane with hexa-arginine compared with without [1]: markedly greater; fluorescence of material that crossed the egg shell membrane [1]: 1359±3

Question: For bevacizumab: anti-VEGF antibody, which “delivery into the posterior segment (the vitreous and the retina) of the treated eye” value (rat eye in vivo; 50 μL eye drop, bevacizumab 25 mg/mL plus hexa-arginine 5 mg/mL, 60 minutes, human IgG ELISA) is on record?
Answer: entered; also recorded: delivered

Question: What about the “level in the bloodstream” value (rat eye in vivo; 60 minutes after topical application) of the same molecule?
Answer: not detected

Question: And the “level in the fellow untreated eye” value (rat eye in vivo; 60 minutes after topical application to the other eye, human IgG ELISA)?
Answer: not detected

Question: With “lampalizumab: antigen-binding fragment (Fab) of a humanized monoclonal antibody targeting CFD” as the molecule, how does the “reduction in the rate of GA enlargement, and hence the area of GA, in the injected eye” value (geographic atrophy (GA); monthly intravitreal injections of 10 mg for 18 months, fundus autofluorescence) read?
Answer: about 20%

Question: And the “reduction in the GA growth rate, and hence the area of GA” value (geographic atrophy (GA); subgroup positive for CFI mutations, monthly intravitreal 10 mg for 18 months)?
Answer: about 44%

B1: GDNF: glial cell-derived neurotrophic factor (protein, UniProt P39905 78-211, looked up)
Glial cell line-derived …: SPDKQMAVLPRRERNRQAAAANPENSRGKGRRGQRGKNRGCVLTAIHLNVTDLGLGYETKEELIFRYCSGSCDAAETTYDKILKNLSRNRRLVSDKVGQACCRPIAFDDDLSFLDDNLVYHILRKHSAKRCGCI
Question: With B1 as the molecule, how does the “crossing of the egg shell membrane” value [1] read?
Answer: did not cross

B2: BDNF: brain-derived neurotrophic factor (protein, UniProt P23560 19-247, looked up)
Neurotrophic factor BDNF …: APMKEANIRGQGGLAYPGVRTHGTLESVNGPKAGSRGLTSLADTFEHVIEELLDEDQKVRPNEENNKDADLYTSRVMLSSQVPLEPPLLFLLEEYKNYLDAANMSMRVRRHSDPARRGELSVCDSISEWVTAADKKTAVDMSGGTVTVLEKVPVSKGQLKQYFYETKCNPMGYTKEGCRGIDKRHWNSQCRTTQSYVRALTMDSKKRIGWRFIRIDTSCVCTLTIKRGR
Question: For B2, which “crossing of the egg shell membrane” value [1] is on record?
Answer: did not cross
